According to ChEMBL document CHEMBL3352435, “Multiple fragment docking and linking in primary and secondary pockets of dopamine receptors” (ACS Med Chem Lett, 2014):

How the values were obtained:
D(2) dopamine receptor = D(2) dopamine receptor (Homo sapiens, UniProt P14416); test: Displacement of [3H]-raclopride from human D2long receptor expressed in HEK293Galpha15 cells after 120 mins by scintillation counting analysis; assay type: cell-based
D(3) dopamine receptor = D(3) dopamine receptor (Homo sapiens, UniProt P35462); test: Displacement of [3H]-raclopride from human D3 receptor expressed in CHO-K1 cells after 120 mins by scintillation counting analysis; assay type: cell-based
Sequence of D(3) dopamine receptor (P35462 whole entry): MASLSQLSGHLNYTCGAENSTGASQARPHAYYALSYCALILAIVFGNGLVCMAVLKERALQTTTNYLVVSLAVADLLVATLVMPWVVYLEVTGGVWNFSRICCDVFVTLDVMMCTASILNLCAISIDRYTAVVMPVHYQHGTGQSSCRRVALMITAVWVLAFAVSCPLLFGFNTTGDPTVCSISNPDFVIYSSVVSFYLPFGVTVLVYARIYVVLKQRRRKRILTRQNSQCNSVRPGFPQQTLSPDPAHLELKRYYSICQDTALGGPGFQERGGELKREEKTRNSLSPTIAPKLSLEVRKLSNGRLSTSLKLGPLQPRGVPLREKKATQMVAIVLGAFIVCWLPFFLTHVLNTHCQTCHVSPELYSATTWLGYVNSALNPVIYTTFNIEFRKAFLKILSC

Homo sapiens = species: Homo sapiens; test: Selectivity index, ratio of Ki for human D2long receptor to Ki for human D3 receptor

Sequence of D(2) dopamine receptor (P14416 whole entry): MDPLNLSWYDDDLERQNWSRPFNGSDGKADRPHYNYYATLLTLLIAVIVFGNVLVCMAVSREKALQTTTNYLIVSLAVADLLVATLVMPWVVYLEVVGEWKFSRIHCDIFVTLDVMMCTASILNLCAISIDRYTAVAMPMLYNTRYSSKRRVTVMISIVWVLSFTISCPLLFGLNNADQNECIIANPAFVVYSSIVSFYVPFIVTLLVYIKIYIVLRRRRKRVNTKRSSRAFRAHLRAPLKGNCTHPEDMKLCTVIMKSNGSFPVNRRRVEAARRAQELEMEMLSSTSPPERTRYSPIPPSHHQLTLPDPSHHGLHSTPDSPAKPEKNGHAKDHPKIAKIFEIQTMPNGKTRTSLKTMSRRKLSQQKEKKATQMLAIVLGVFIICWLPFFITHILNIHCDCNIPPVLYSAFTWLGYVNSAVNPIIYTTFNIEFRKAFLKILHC

Row | Ki (D(2) dopamine receptor) | Ki (D(3) dopamine receptor) | Ratio Ki (Homo sapiens) | Structure (SMILES)
1 | 37 nM | 0.67 nM | 55 | N#Cc1cc(N2CCN(CC[C@H]3CC[C@H](NS(N)(=O)=O)CC3)CC2)cc(C(F)(F)F)c1
2 | 30 nM | 0.75 nM | 39 | N#Cc1cc(N2CCN(CC[C@H]3CC[C@H](NC(N)=O)CC3)CC2)cc(C(F)(F)F)c1
3 | 5.4 nM | 0.62 nM | 9 | N#Cc1cc(N2CCN(CC[C@H]3CC[C@H](NC(=O)CN)CC3)CC2)cc(C(F)(F)F)c1
